Results reported in patent US20020009508A1, “Echinacea extract as anti-irritant and anti-aging booster in cosmetic compositions” (priority 2000, published 2002).

Test system: IL-1a-induced PGE2 in neonatal human dermal fibroblasts
Test: Inhibition of IL-1a-induced PGE2 production in fibroblasts (PGE2 enzyme immunoassay)
Type: cell-based
Procedure: Neonatal human dermal fibroblasts (passage 5-9) were seeded at a density of 7500 cells per well in 96-well tissue culture treated plates (Corning-Costar, Corning, N.Y.). The medium used was Dulbecco's Modified Eagle's Medium (DMEM), high-glucose (Gibco/Life Technologies, Gaithersburg, Md.) supplemented with 2 mM L-glutamine, 10% fetal bovine serum, and antibiotic and anti mycotic solutions (all also Life Technologies). After 48 hours, each well was rinsed twice with 200 μl serum-free DMEM and the cells dosed with 200 μl in DMEM+L-glutamine containing IL-1α at 1 ng/ml +/− active. […]
Enzyme immunoassay was performed using a commercial PGE2 kit (Amersham, Buckinghamshire, England). […] The assay is based on the competition between unlabelled PGE2 (standard or sample) and a fixed quantity of peroxidase labelled PGE2 for a limited amount of the well-bound PGE2-specific antibody. […] The Dynatech MR7000 microplate spectrophotometer (Dynatech, Chantilly, Va.) was used to quantitate color in the wells by reading absorbance at 450 nm. […]
The antiinflammatory potential of the test compounds is assessed by the ability of the compound to inhibit IL-1a-induced PGE2 and is expressed as the ratio of PGE2 produced by the cells treated with the test compound +IL-1a to PGE2 produced by the cells treated with IL-1a alone. […] Statistical significance was determined using the student's t-test.

Chicoric acid
Ratio of PGE2 with echinacea + IL-1a/IL-1a (Table 1b, concentration 0.001%): 0.02 | Effectiveness in the PGE2 test (in words) (at 0.001%): effective
